Patent US20060069132A1, “Azolecarboxamide herbicides” (priority 2004, published 2006)

How the values were obtained:
Surinam grass = assay: Test E pre-/postemergence herbicide test; assay type: in vivo, Urochloa decumbens
Source text: (§1) Seeds of plant species selected from bipinnate beggarticks (Bidens bipinnata L.), hairy beggarticks (Bidens radiata Thuill.), bermudagrass (Cynodon dactylon (L.) Pers.), Surinam grass (Urochloa decumbens (Staph) R. D. Webster, previously named Brachiaria decumbens Stapf), large crabgrass (Digitaria sanguinalis (L.) Scop.), green foxtail (Setaria viridis (L.) P. Beauv.), goosegrass (Eleusine indica (L.) Gaertn.), johnsongrass (Sorghum halepense (L.) Pers.), kochia (Kochia scoparia (L.) Schrad.), pitted morningglory (Ipomoea lacunosa L.), purple nutsedge (Cyperus rotundus L.), common ragweed (Ambrosia elatior L.), mustard (Brassica nigra (L.) W. D. J. Koch), guineagrass (Panicum maximum Jacq.), dallisgrass (Paspalum dilatatum Poir.), barnyardgrass (Echinochloa crus-galli (L). P. Beauv.), southern sandbur (Cenchrus echinatus L.), common sowthistle (Sonchus oleraceous L.), prickly sida (Sida spinosa L.), Italian ryegrass (Lolium multiflorum Lam.), common purslane (Portulaca oleracea L.), broadleaf signalgrass (Brachiaria platyphylla (Griseb.) Nash), common groundsel (Senecio vulgaris L.), common chickweed (Stellaria media (L.) Vill/Cyr.), tropical spiderwort (Commelina benghalensis L.), annual bluegrass (Poa annua L.), downy bromegrass (Bromus tectorum L.), itchgrass (Rottboellia cochinchinensis (L.) L.f.), quackgrass (Elytrigia repens (L.) Nevski), Canada horseweed (Erigeron Canadensis L.), field bindweed (Convolvulus arvensis L.), spotted spurge (Euphorbia maculata L.), common mallow (Malva sylvestris (=s silvestris) L.), and Russian thistle (Salsola kali L. ssp. Ruthenica (Iljin) Soo) were planted and treated preemergence with test chemicals formulated in a non-phytotoxic solvent mixture which included a surfactant.
(§2) At the same time, plants selected from these weed species were treated with postemergence applications of some of the test chemicals formulated in the same manner. Plants ranged in height from 2 to 18 cm (1- to 4-leaf stage) for postemergence treatments. Treated plants and controls were maintained in a greenhouse for 12 to 14 days, after which time all species were compared to controls and visually evaluated. Plant response ratings, summarized in Table E, are based on a scale of 0 to 100 where 0 is no effect and 100 is complete control. A dash (-) response means no test result.

large crabgrass = assay: Test E pre-/postemergence herbicide test; assay type: in vivo, Digitaria sanguinalis
Source text: as §1, §2

barnyardgrass = assay: Test E pre-/postemergence herbicide test; assay type: in vivo, Echinochloa crus-galli
Source text: as §1, §2

southern sandbur = assay: Test E pre-/postemergence herbicide test; assay type: in vivo, Cenchrus echinatus
Source text: as §1, §2

Russian thistle = assay: Test E pre-/postemergence herbicide test; assay type: in vivo, Salsola kali
Source text: as §1, §2

winter barley = assay: Test C postemergence herbicide test; assay type: in vivo, Hordeum vulgare
How it was run: (§3)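 After a postemergence application at 1 to 4 leaves (plants 2–18 cm high), or at 2 leaves for barnyardgrass in flooded paddy, plants stayed in the greenhouse for 12 to 14 days. Damage was then judged visually relative to control plants, with 100 indicating complete control.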

blackgrass = assay: Test C postemergence herbicide test; assay type: in vivo, Alopecurus myosuroides
How it was run: as §3

canarygrass = assay: Test C postemergence herbicide test; assay type: in vivo, Phalaris minor
How it was run: as §3

downy bromegrass = assay: Test C postemergence herbicide test; assay type: in vivo, Bromus tectorum
How it was run: as §3

green foxtail = assay: Test C postemergence herbicide test; assay type: in vivo, Setaria viridis
How it was run: as §3

Italian ryegrass = assay: Test C postemergence herbicide test; assay type: in vivo, Lolium multiflorum
How it was run: as §3

wheat = assay: Test C postemergence herbicide test; assay type: in vivo, Triticum aestivum
How it was run: as §3

wild oat = assay: Test C postemergence herbicide test; assay type: in vivo, Avenafatua
How it was run: as §3

windgrass = assay: Test C postemergence herbicide test; assay type: in vivo, Apera spica-venti
How it was run: as §3

[1] = Postemergence, 500 g ai/ha, scale 0 to 100
[2] = Postemergence, 250 g ai/ha, scale 0 to 100
[3] = Preemergence, 62 g ai/ha, scale 0 to 100
[4] = Preemergence, 125 g ai/ha, scale 0 to 100
[5] = Preemergence, 500 g ai/ha, scale 0 (no effect) to 100 (complete control)
[6] = postemergence, 125 g ai/ha, scale 0 to 100
[7] = postemergence, 62 g ai/ha, scale 0 to 100
[8] = Preemergence, 125 g ai/ha, scale 0 (no effect) to 100 (complete control)
[9] = Preemergence, 250 g ai/ha, scale 0 (no effect) to 100 (complete control)
[10] = Postemergence, 250 g ai/ha, scale 0 to 100, 0 no effect, 100 complete control
[11] = Postemergence, 500 g ai/ha, scale 0 to 100, 0 no effect, 100 complete control

CCn1nc(C(C)(C)C)cc1C(=O)Nc1cc(C(=O)N(C)C)ccc1F [Compound 6, N-[5-[(dimethylamino)carbonyl]-2-fluorophenyl]-3-(1,1-dimethylethyl)-1-ethyl-1H-pyrazole-5-carboxamide]
Plant response rating, Surinam Grass (Surinam grass; [1]): 98
Plant response rating, Surinam Grass (Surinam grass; [2]): 95
Plant response rating, Surinam Grass (Surinam grass; [3]): 85
Plant response rating, Surinam Grass (Surinam grass; [4]): 90
Plant response rating, Surinam Grass (Surinam grass; [5]): 100
Plant response rating, Surinam Grass (Surinam grass; [6]): 90
Plant response rating, Surinam Grass (Surinam grass; [7]): 75
Plant response rating, Crabgrass, Large (large crabgrass; [1]): 98
Plant response rating, Crabgrass, Large (large crabgrass; [2]): 98
Plant response rating, Crabgrass, Large (large crabgrass; [3]): 80
Plant response rating, Crabgrass, Large (large crabgrass; [8]): 90
Plant response rating, Crabgrass, Large (large crabgrass; [5]): 100
Plant response rating, Crabgrass, Large (large crabgrass; [6]): 90
Plant response rating, Crabgrass, Large (large crabgrass; [7]): 75
Plant response rating, Barnyardgrass (barnyardgrass; [1]): 98
Plant response rating, Barnyardgrass (barnyardgrass; [2]): 95
Plant response rating, Barnyardgrass (barnyardgrass; [3]): 90
Plant response rating, Barnyardgrass (barnyardgrass; [8]): 95
Plant response rating, Barnyardgrass (barnyardgrass; [9]): 95
Plant response rating, Barnyardgrass (barnyardgrass; [5]): 100
Plant response rating, Barnyardgrass (barnyardgrass; [6]): 90
Plant response rating, Barnyardgrass (barnyardgrass; [7]): 80
Plant response rating, Sandbur (southern sandbur; [1]): 100
Plant response rating, Sandbur (southern sandbur; [2]): 100
Plant response rating, Sandbur (southern sandbur; [3]): 85
Plant response rating, Sandbur (southern sandbur; [8]): 100
Plant response rating, Sandbur (southern sandbur; [5]): 100
Plant response rating, Sandbur (southern sandbur; [6]): 95
Plant response rating, Sandbur (southern sandbur; [7]): 85
Plant response rating, Thistle (Russian thistle; [3]): 50
Plant response rating, Thistle (Russian thistle; [4]): 70
Plant response rating, Thistle (Russian thistle; [9]): 70
Plant response rating, Thistle (Russian thistle; [5]): 80

Cc1nn(C(C)(C)C)nc1C(=O)Nc1cccc(C(=O)N(C)C)c1 [Compound 391]
Barley, Winter plant response rating (winter barley; [1]): 30
Plant response rating, Barley, Winter (winter barley; [10]): 30
Plant response rating, Barley, Winter (winter barley; postemergence, 125 g ai/ha, scale 0 to 100 (0 no effect, 100 complete control)): 10
Plant response rating, Barley, Winter (winter barley; postemergence, 62 g ai/ha, scale 0 to 100 (0 no effect, 100 complete control)): 10
Blackgrass plant response rating (blackgrass; [1]): 65
Plant response rating, Blackgrass (blackgrass; [10]): 55
Plant response rating, Blackgrass (blackgrass; [6]): 45
Plant response rating, Blackgrass (blackgrass; [7]): 40
Plant response rating, Canarygrass (canarygrass; [10]): 60
Plant response rating, Canarygrass (canarygrass; [11]): 65
Plant response rating, Canarygrass (canarygrass; [6]): 40
Plant response rating, Canarygrass (canarygrass; [7]): 40
Plant response rating, Bromegrass, Downy (downy bromegrass; [10]): 55
Plant response rating, Bromegrass, Downy (downy bromegrass; [11]): 65
Plant response rating, Bromegrass, Downy (downy bromegrass; [6]): 45
Plant response rating, Bromegrass, Downy (downy bromegrass; [7]): 45
Plant response rating, Foxtail, Green (green foxtail; [10]): 60
Plant response rating, Foxtail, Green (green foxtail; [11]): 65
Plant response rating, Foxtail, Green (green foxtail; [6]): 55
Plant response rating, Foxtail, Green (green foxtail; [7]): 55
Plant response rating, Ryegrass, Italian (Italian ryegrass; [11]): 65
Plant response rating, Ryegrass, Italian (Italian ryegrass; [6]): 40
Plant response rating, Ryegrass, Italian (Italian ryegrass; [7]): 35
Plant response rating, Wheat (wheat; [11]): 35
Plant response rating, Wheat (wheat; [6]): 20
Plant response rating, Wheat (wheat; [7]): 0
Plant response rating, Oat, Wild (wild oat; [11]): 65
Plant response rating, Oat, Wild (wild oat; [6]): 40
Plant response rating, Oat, Wild (wild oat; [7]): 30
Plant response rating, Windgrass (windgrass; [11]): 70
Plant response rating, Windgrass (windgrass; [6]): 65
Plant response rating, Windgrass (windgrass; [7]): 60
Plant response rating, Surinam Grass (Surinam grass; [4]): 70
Plant response rating, Surinam Grass (Surinam grass; [5]): 100
Plant response rating, Crabgrass, Large (large crabgrass; [3]): 60
Plant response rating, Crabgrass, Large (large crabgrass; [4]): 95
Plant response rating, Crabgrass, Large (large crabgrass; [9]): 95
Plant response rating, Crabgrass, Large (large crabgrass; [5]): 95
Plant response rating, Barnyardgrass (barnyardgrass; [3]): 50
Plant response rating, Barnyardgrass (barnyardgrass; [4]): 100
Plant response rating, Barnyardgrass (barnyardgrass; [9]): 100
Plant response rating, Barnyardgrass (barnyardgrass; [5]): 100
Plant response rating, Sandbur (southern sandbur; [3]): 10
Plant response rating, Sandbur (southern sandbur; [4]): 70
Plant response rating, Sandbur (southern sandbur; [9]): 80
Plant response rating, Sandbur (southern sandbur; [5]): 80
Plant response rating, Thistle (Russian thistle; [4]): 100
Plant response rating, Thistle (Russian thistle; [5]): 100

CCNC(=O)c1ccnc(NC(=O)c2cc(C(C)(C)C)nn2CC)c1 [Compound 152]
Plant response rating, Surinam Grass (Surinam grass; [1]): 80
Plant response rating, Surinam Grass (Surinam grass; [2]): 60
Plant response rating, Surinam Grass (Surinam grass; [3]): 20
Plant response rating, Surinam Grass (Surinam grass; [4]): 50
Plant response rating, Surinam Grass (Surinam grass; [5]): 80
Plant response rating, Surinam Grass (Surinam grass; [6]): 30
Plant response rating, Crabgrass, Large (large crabgrass; [1]): 80
Plant response rating, Crabgrass, Large (large crabgrass; [2]): 75
Plant response rating, Crabgrass, Large (large crabgrass; [3]): 40
Plant response rating, Crabgrass, Large (large crabgrass; [4]): 70
Plant response rating, Crabgrass, Large (large crabgrass; [9]): 100
Plant response rating, Crabgrass, Large (large crabgrass; [5]): 100
Plant response rating, Crabgrass, Large (large crabgrass; [6]): 60
Plant response rating, Barnyardgrass (barnyardgrass; [1]): 75
Plant response rating, Barnyardgrass (barnyardgrass; [2]): 75
Plant response rating, Barnyardgrass (barnyardgrass; [3]): 60
Plant response rating, Barnyardgrass (barnyardgrass; [4]): 75
Plant response rating, Barnyardgrass (barnyardgrass; [9]): 85
Plant response rating, Barnyardgrass (barnyardgrass; [5]): 90
Plant response rating, Barnyardgrass (barnyardgrass; [6]): 50
Plant response rating, Sandbur (southern sandbur; [1]): 100
Plant response rating, Sandbur (southern sandbur; [2]): 40
Plant response rating, Sandbur (southern sandbur; [3]): 10
Plant response rating, Sandbur (southern sandbur; [4]): 30
Plant response rating, Sandbur (southern sandbur; [9]): 70
Plant response rating, Sandbur (southern sandbur; [5]): 80
Plant response rating, Sandbur (southern sandbur; [6]): 20
Plant response rating, Thistle (Russian thistle; [1]): 80
Plant response rating, Thistle (Russian thistle; [2]): 80
Plant response rating, Thistle (Russian thistle; [3]): 20
Plant response rating, Thistle (Russian thistle; [4]): 20
Plant response rating, Thistle (Russian thistle; [5]): 100

CCc1nn(C(C)(C)CC)nc1C(=O)Nc1cccc(C(=O)N(C)C)c1 [Compound 372]
Plant response rating, Surinam Grass (Surinam grass; [4]): 40
Plant response rating, Surinam Grass (Surinam grass; [5]): 75
Plant response rating, Crabgrass, Large (large crabgrass; [3]): 10
Plant response rating, Crabgrass, Large (large crabgrass; [4]): 50
Plant response rating, Crabgrass, Large (large crabgrass; [9]): 70
Plant response rating, Crabgrass, Large (large crabgrass; [5]): 100
Plant response rating, Barnyardgrass (barnyardgrass; [3]): 50
Plant response rating, Barnyardgrass (barnyardgrass; [4]): 70
Plant response rating, Barnyardgrass (barnyardgrass; [9]): 80
Plant response rating, Barnyardgrass (barnyardgrass; [5]): 95
Plant response rating, Sandbur (southern sandbur; [3]): 20
Plant response rating, Sandbur (southern sandbur; [4]): 30
Plant response rating, Sandbur (southern sandbur; [9]): 60
Plant response rating, Sandbur (southern sandbur; [5]): 70
Plant response rating, Thistle (Russian thistle; [4]): 40
Plant response rating, Thistle (Russian thistle; [5]): 80
